Results published in patent US9437446B2, “Slurry for chemical mechanical polishing and chemical mechanical polishing method” (KURARAY CO., LTD., priority 2012, dated 2016).

How the values were obtained:
[1] = pKa of the amino group (conjugated acid) of the amino compound used in the slurry; conditions: water
[2] = physchem

Excerpt: Such value of the pKa can be measured by the potentiometric titration method. In the present specification, the pKa of the amino group is “pKa of conjugated acid of the amino group”.

Compound	pKa [1]	pKa [2]
CCCCNCCO [2-(butylamino)ethanol]	10	–
N[C@H]1C(O)O[C@H](CO)[C@@H](O)[C@@H]1O (stereo partly shown) [glucosamine]	7.6	–
CCNC[C@H](O)[C@@H](O)[C@H](O)[C@H](O)CO [N-ethyl glucamine, N-ethylglucamine]	9.5	–
